Results as given in the OligoGym collection.
Oligonucleotides are given in HELM: sugar(base)linkage, 5' to 3'; d 2'-deoxyribose, r ribose, m 2'-O-methylribose, p phosphate. ss, as = sense and antisense strand

These substances were tested against Mmp7 (rat) (assay: reporter assay of Huesken 2005). Conditions: siRNA.
Note: test concentration or dose not given here.

Substance	normalised inhibition (eCFP-eYFP dual reporter)
RNA1{r(G)p.r(U)p.r(U)p.r(C)p.r(U)p.r(G)p.r(U)p.r(G)p.r(A)p.r(U)p.r(G)p.r(U)p.r(A)p.r(C)p.r(C)p.r(C)p.r(U)p.r(A)p.r(C)p.d(T)p.d(T)}|RNA2{r(G)p.r(U)p.r(A)p.r(G)p.r(G)p.r(G)p.r(U)p.r(A)p.r(C)p.r(A)p.r(U)p.r(C)p.r(A)p.r(C)p.r(A)p.r(G)p.r(A)p.r(A)p.r(C)p.d(T)p.d(G)}$$$RNA1{StrandType:ss}|RNA2{StrandType:as}$	105%
RNA1{r(G)p.r(G)p.r(C)p.r(C)p.r(A)p.r(G)p.r(G)p.r(A)p.r(A)p.r(A)p.r(C)p.r(A)p.r(C)p.r(U)p.r(C)p.r(U)p.r(A)p.r(G)p.r(G)p.d(T)p.d(T)}|RNA2{r(C)p.r(C)p.r(U)p.r(A)p.r(G)p.r(A)p.r(G)p.r(U)p.r(G)p.r(U)p.r(U)p.r(U)p.r(C)p.r(C)p.r(U)p.r(G)p.r(G)p.r(C)p.r(C)p.d(C)p.d(A)}$$$RNA1{StrandType:ss}|RNA2{StrandType:as}$	54.5%
RNA1{r(C)p.r(A)p.r(U)p.r(A)p.r(A)p.r(U)p.r(U)p.r(G)p.r(G)p.r(C)p.r(U)p.r(U)p.r(C)p.r(G)p.r(C)p.r(A)p.r(A)p.r(G)p.r(G)p.d(T)p.d(T)}|RNA2{r(C)p.r(C)p.r(U)p.r(U)p.r(G)p.r(C)p.r(G)p.r(A)p.r(A)p.r(G)p.r(C)p.r(C)p.r(A)p.r(A)p.r(U)p.r(U)p.r(A)p.r(U)p.r(G)p.d(A)p.d(T)}$$$RNA1{StrandType:ss}|RNA2{StrandType:as}$	63.1%
RNA1{r(C)p.r(A)p.r(G)p.r(A)p.r(C)p.r(A)p.r(U)p.r(C)p.r(A)p.r(U)p.r(A)p.r(A)p.r(U)p.r(U)p.r(G)p.r(G)p.r(C)p.r(U)p.r(U)p.d(T)p.d(T)}|RNA2{r(A)p.r(A)p.r(G)p.r(C)p.r(C)p.r(A)p.r(A)p.r(U)p.r(U)p.r(A)p.r(U)p.r(G)p.r(A)p.r(U)p.r(G)p.r(U)p.r(C)p.r(U)p.r(G)p.d(C)p.d(A)}$$$RNA1{StrandType:ss}|RNA2{StrandType:as}$	103%
RNA1{r(C)p.r(C)p.r(C)p.r(A)p.r(G)p.r(G)p.r(A)p.r(A)p.r(G)p.r(C)p.r(C)p.r(G)p.r(G)p.r(A)p.r(G)p.r(A)p.r(A)p.r(G)p.r(U)p.d(T)p.d(T)}|RNA2{r(A)p.r(C)p.r(U)p.r(U)p.r(C)p.r(U)p.r(C)p.r(C)p.r(G)p.r(G)p.r(C)p.r(U)p.r(U)p.r(C)p.r(C)p.r(U)p.r(G)p.r(G)p.r(G)p.d(A)p.d(C)}$$$RNA1{StrandType:ss}|RNA2{StrandType:as}$	64.2%
RNA1{r(A)p.r(G)p.r(A)p.r(C)p.r(A)p.r(U)p.r(C)p.r(A)p.r(U)p.r(A)p.r(A)p.r(U)p.r(U)p.r(G)p.r(G)p.r(C)p.r(U)p.r(U)p.r(C)p.d(T)p.d(T)}|RNA2{r(G)p.r(A)p.r(A)p.r(G)p.r(C)p.r(C)p.r(A)p.r(A)p.r(U)p.r(U)p.r(A)p.r(U)p.r(G)p.r(A)p.r(U)p.r(G)p.r(U)p.r(C)p.r(U)p.d(G)p.d(C)}$$$RNA1{StrandType:ss}|RNA2{StrandType:as}$	99.4%
RNA1{r(A)p.r(C)p.r(U)p.r(C)p.r(A)p.r(G)p.r(G)p.r(C)p.r(G)p.r(U)p.r(G)p.r(A)p.r(A)p.r(C)p.r(U)p.r(U)p.r(C)p.r(C)p.r(U)p.d(T)p.d(T)}|RNA2{r(A)p.r(G)p.r(G)p.r(A)p.r(A)p.r(G)p.r(U)p.r(U)p.r(C)p.r(A)p.r(C)p.r(G)p.r(C)p.r(C)p.r(U)p.r(G)p.r(A)p.r(G)p.r(U)p.d(C)p.d(C)}$$$RNA1{StrandType:ss}|RNA2{StrandType:as}$	73.1%
RNA1{r(A)p.r(C)p.r(U)p.r(G)p.r(G)p.r(A)p.r(C)p.r(G)p.r(G)p.r(A)p.r(U)p.r(G)p.r(G)p.r(U)p.r(G)p.r(A)p.r(G)p.r(G)p.r(A)p.d(T)p.d(T)}|RNA2{r(U)p.r(C)p.r(C)p.r(U)p.r(C)p.r(A)p.r(C)p.r(C)p.r(A)p.r(U)p.r(C)p.r(C)p.r(G)p.r(U)p.r(C)p.r(C)p.r(A)p.r(G)p.r(U)p.d(A)p.d(C)}$$$RNA1{StrandType:ss}|RNA2{StrandType:as}$	46.5%
RNA1{r(G)p.r(G)p.r(G)p.r(A)p.r(A)p.r(C)p.r(A)p.r(G)p.r(G)p.r(C)p.r(G)p.r(C)p.r(A)p.r(G)p.r(A)p.r(A)p.r(U)p.r(U)p.r(A)p.d(T)p.d(T)}|RNA2{r(U)p.r(A)p.r(A)p.r(U)p.r(U)p.r(C)p.r(U)p.r(G)p.r(C)p.r(G)p.r(C)p.r(C)p.r(U)p.r(G)p.r(U)p.r(U)p.r(C)p.r(C)p.r(C)p.d(A)p.d(C)}$$$RNA1{StrandType:ss}|RNA2{StrandType:as}$	93.6%
RNA1{r(G)p.r(G)p.r(A)p.r(C)p.r(G)p.r(G)p.r(A)p.r(U)p.r(G)p.r(G)p.r(U)p.r(G)p.r(A)p.r(G)p.r(G)p.r(A)p.r(C)p.r(U)p.r(C)p.d(T)p.d(T)}|RNA2{r(G)p.r(A)p.r(G)p.r(U)p.r(C)p.r(C)p.r(U)p.r(C)p.r(A)p.r(C)p.r(C)p.r(A)p.r(U)p.r(C)p.r(C)p.r(G)p.r(U)p.r(C)p.r(C)p.d(A)p.d(G)}$$$RNA1{StrandType:ss}|RNA2{StrandType:as}$	81.1%
RNA1{r(G)p.r(G)p.r(A)p.r(A)p.r(A)p.r(U)p.r(U)p.r(U)p.r(U)p.r(A)p.r(C)p.r(C)p.r(U)p.r(U)p.r(C)p.r(A)p.r(C)p.r(G)p.r(A)p.d(T)p.d(T)}|RNA2{r(U)p.r(C)p.r(G)p.r(U)p.r(G)p.r(A)p.r(A)p.r(G)p.r(G)p.r(U)p.r(A)p.r(A)p.r(A)p.r(A)p.r(U)p.r(U)p.r(U)p.r(C)p.r(C)p.d(T)p.d(A)}$$$RNA1{StrandType:ss}|RNA2{StrandType:as}$	127%
RNA1{r(G)p.r(G)p.r(A)p.r(A)p.r(G)p.r(C)p.r(C)p.r(G)p.r(G)p.r(A)p.r(G)p.r(A)p.r(A)p.r(G)p.r(U)p.r(G)p.r(A)p.r(C)p.r(C)p.d(T)p.d(T)}|RNA2{r(G)p.r(G)p.r(U)p.r(C)p.r(A)p.r(C)p.r(U)p.r(U)p.r(C)p.r(U)p.r(C)p.r(C)p.r(G)p.r(G)p.r(C)p.r(U)p.r(U)p.r(C)p.r(C)p.d(T)p.d(G)}$$$RNA1{StrandType:ss}|RNA2{StrandType:as}$	83%
RNA1{r(U)p.r(U)p.r(U)p.r(A)p.r(C)p.r(C)p.r(U)p.r(U)p.r(C)p.r(A)p.r(C)p.r(G)p.r(A)p.r(C)p.r(U)p.r(C)p.r(U)p.r(A)p.r(A)p.d(T)p.d(T)}|RNA2{r(U)p.r(U)p.r(A)p.r(G)p.r(A)p.r(G)p.r(U)p.r(C)p.r(G)p.r(U)p.r(G)p.r(A)p.r(A)p.r(G)p.r(G)p.r(U)p.r(A)p.r(A)p.r(A)p.d(A)p.d(T)}$$$RNA1{StrandType:ss}|RNA2{StrandType:as}$	110%
RNA1{r(U)p.r(G)p.r(C)p.r(A)p.r(G)p.r(A)p.r(A)p.r(U)p.r(U)p.r(C)p.r(U)p.r(C)p.r(A)p.r(C)p.r(U)p.r(A)p.r(A)p.r(U)p.r(G)p.d(T)p.d(T)}|RNA2{r(C)p.r(A)p.r(U)p.r(U)p.r(A)p.r(G)p.r(U)p.r(G)p.r(A)p.r(G)p.r(A)p.r(A)p.r(U)p.r(U)p.r(C)p.r(U)p.r(G)p.r(C)p.r(A)p.d(A)p.d(C)}$$$RNA1{StrandType:ss}|RNA2{StrandType:as}$	72.9%
RNA1{r(C)p.r(C)p.r(U)p.r(U)p.r(C)p.r(A)p.r(C)p.r(G)p.r(A)p.r(C)p.r(U)p.r(C)p.r(U)p.r(A)p.r(A)p.r(A)p.r(A)p.r(C)p.r(A)p.d(T)p.d(T)}|RNA2{r(U)p.r(G)p.r(U)p.r(U)p.r(U)p.r(U)p.r(A)p.r(G)p.r(A)p.r(G)p.r(U)p.r(C)p.r(G)p.r(U)p.r(G)p.r(A)p.r(A)p.r(G)p.r(G)p.d(T)p.d(A)}$$$RNA1{StrandType:ss}|RNA2{StrandType:as}$	126%
RNA1{r(G)p.r(G)p.r(A)p.r(A)p.r(C)p.r(A)p.r(G)p.r(G)p.r(C)p.r(G)p.r(C)p.r(A)p.r(G)p.r(A)p.r(A)p.r(U)p.r(U)p.r(A)p.r(U)p.d(T)p.d(T)}|RNA2{r(A)p.r(U)p.r(A)p.r(A)p.r(U)p.r(U)p.r(C)p.r(U)p.r(G)p.r(C)p.r(G)p.r(C)p.r(C)p.r(U)p.r(G)p.r(U)p.r(U)p.r(C)p.r(C)p.d(C)p.d(A)}$$$RNA1{StrandType:ss}|RNA2{StrandType:as}$	104%
RNA1{r(A)p.r(A)p.r(G)p.r(G)p.r(C)p.r(C)p.r(A)p.r(C)p.r(C)p.r(A)p.r(G)p.r(U)p.r(G)p.r(C)p.r(A)p.r(G)p.r(U)p.r(G)p.r(G)p.d(T)p.d(T)}|RNA2{r(C)p.r(C)p.r(A)p.r(C)p.r(U)p.r(G)p.r(C)p.r(A)p.r(C)p.r(U)p.r(G)p.r(G)p.r(U)p.r(G)p.r(G)p.r(C)p.r(C)p.r(U)p.r(U)p.d(C)p.d(T)}$$$RNA1{StrandType:ss}|RNA2{StrandType:as}$	22.3%
RNA1{r(C)p.r(U)p.r(C)p.r(U)p.r(C)p.r(U)p.r(G)p.r(G)p.r(G)p.r(U)p.r(C)p.r(U)p.r(G)p.r(G)p.r(G)p.r(U)p.r(C)p.r(A)p.r(C)p.d(T)p.d(T)}|RNA2{r(G)p.r(U)p.r(G)p.r(A)p.r(C)p.r(C)p.r(C)p.r(A)p.r(G)p.r(A)p.r(C)p.r(C)p.r(C)p.r(A)p.r(G)p.r(A)p.r(G)p.r(A)p.r(G)p.d(T)p.d(G)}$$$RNA1{StrandType:ss}|RNA2{StrandType:as}$	73.1%
RNA1{r(C)p.r(G)p.r(A)p.r(C)p.r(U)p.r(C)p.r(U)p.r(A)p.r(A)p.r(A)p.r(A)p.r(C)p.r(A)p.r(A)p.r(A)p.r(G)p.r(A)p.r(A)p.r(G)p.d(T)p.d(T)}|RNA2{r(C)p.r(U)p.r(U)p.r(C)p.r(U)p.r(U)p.r(U)p.r(G)p.r(U)p.r(U)p.r(U)p.r(U)p.r(A)p.r(G)p.r(A)p.r(G)p.r(U)p.r(C)p.r(G)p.d(T)p.d(G)}$$$RNA1{StrandType:ss}|RNA2{StrandType:as}$	113%
RNA1{r(G)p.r(G)p.r(C)p.r(G)p.r(C)p.r(A)p.r(G)p.r(A)p.r(A)p.r(U)p.r(U)p.r(A)p.r(U)p.r(C)p.r(U)p.r(U)p.r(A)p.r(G)p.r(G)p.d(T)p.d(T)}|RNA2{r(C)p.r(C)p.r(U)p.r(A)p.r(A)p.r(G)p.r(A)p.r(U)p.r(A)p.r(A)p.r(U)p.r(U)p.r(C)p.r(U)p.r(G)p.r(C)p.r(G)p.r(C)p.r(C)p.d(T)p.d(G)}$$$RNA1{StrandType:ss}|RNA2{StrandType:as}$	134%
